Earlier results in patent US20190216738A1, “PIRFENIDONE-CONTAINING TABLET AND CAPSULE FORMULATION” (Laurus Labs Ltd, priority 2018, published 2019).

In the case of Cc1ccc(=O)n(-c2ccccc2)c1 [Pirfenidone], the solubility (1.0 N HCl, water and 1.0 N NaOH) is given as “sparingly soluble” and the “dissolution in water (solubility)” value (water, 25° C., pH independent) is given as 19 mg/mL.
